biological target: T1, human p38 kinase alpha (Homo sapiens, UniProt Q16539); assay: p38 kinase in vitro assay, phosphorylation of biotinylated PHAS-I with 32P-ATP; format: biochemical; conditions: @ 1.0 uM
T1 construct: GST (N, cleaved yes); made in house; host or cells: E. coli DH10B
T1 sequence (Q16539 whole entry): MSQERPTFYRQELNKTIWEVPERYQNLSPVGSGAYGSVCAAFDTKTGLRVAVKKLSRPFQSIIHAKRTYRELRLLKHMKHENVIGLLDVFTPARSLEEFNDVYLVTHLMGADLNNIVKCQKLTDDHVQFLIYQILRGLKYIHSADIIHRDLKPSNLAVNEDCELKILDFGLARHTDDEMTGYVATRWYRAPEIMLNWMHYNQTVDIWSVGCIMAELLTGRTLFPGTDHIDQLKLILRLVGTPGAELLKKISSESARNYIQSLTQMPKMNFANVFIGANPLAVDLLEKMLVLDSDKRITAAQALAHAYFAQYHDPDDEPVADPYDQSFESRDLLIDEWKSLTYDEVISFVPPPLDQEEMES

Structure (SMILES) | P38 alpha kinase % inhib @ conc. (uM)
CC(C)C(=O)NCCCc1[nH]nc(-c2ccc(F)cc2)c1-c1ccncc1 [Example B-1160] | 79.0% @
CC(=O)OC(C)(C)C(=O)NCCCc1[nH]nc(-c2ccc(F)cc2)c1-c1ccncc1 [Example B-1163] | 74.0% @
O=C(NCCCc1[nH]nc(-c2ccc(F)cc2)c1-c1ccncc1)c1cccc(Br)c1 [Example B-1167] | 70.0% @
O=C(NCCCc1[nH]nc(-c2ccc(F)cc2)c1-c1ccncc1)c1ccc(I)cc1 [Example B-1168] | 66.0% @
O=C(NCCCc1[nH]nc(-c2ccc(F)cc2)c1-c1ccncc1)c1ccno1 [Example B-1169] | 80.0% @
COCC(=O)NCCCc1[nH]nc(-c2ccc(F)cc2)c1-c1ccncc1 [Example B-1171] | 78.0% @
COc1ccccc1C(=O)NCCCc1[nH]nc(-c2ccc(F)cc2)c1-c1ccncc1 [Example B-1172] | 68.0% @
O=C(NCCCc1[nH]nc(-c2ccc(F)cc2)c1-c1ccncc1)c1ccccc1C(F)(F)F [Example B-1173] | 65.0% @
O=C(NCCCc1[nH]nc(-c2ccc(F)cc2)c1-c1ccncc1)c1ccc(F)c(F)c1F [Example B-1174] | 80.0% @
COc1cccc(CC(=O)NCCCc2[nH]nc(-c3ccc(F)cc3)c2-c2ccncc2)c1 [Example B-1178] | 92.0% @
Cc1ccc(C(=O)NCCCc2[nH]nc(-c3ccc(F)cc3)c2-c2ccncc2)cc1 [Example B-1179] | 86.0% @
O=C(NCCCc1[nH]nc(-c2ccc(F)cc2)c1-c1ccncc1)c1ccccc1 [Example B-1180] | 78.0% @

same assay, conditions: in vitro P38-alpha kinase inhibition; read-out: P38 alpha kinase IC50

Structure (SMILES) | IC50
COc1ccc(Cl)cc1S(=O)(=O)NCCc1[nH]nc(-c2ccc(F)cc2)c1-c1ccncc1 [Example B-1106] | < 100 nM
N#Cc1ccc(S(=O)(=O)NCCc2[nH]nc(-c3ccc(F)cc3)c2-c2ccncc2)cc1 [Example B-1107] | 57 nM
O=C(NCc1ccc(S(=O)(=O)NCCc2[nH]nc(-c3ccc(F)cc3)c2-c2ccncc2)s1)c1ccccc1 [Example B-1108] | 220 nM
O=S(=O)(NCCc1[nH]nc(-c2ccc(F)cc2)c1-c1ccncc1)c1ccc(-c2ccccc2)cc1 [Example B-1109] | 54 nM
Cc1c(C)c(S(=O)(=O)NCCc2[nH]nc(-c3ccc(F)cc3)c2-c2ccncc2)c(C)c2c1OC(C)(C)CC2 [Example B-1110] | 470 nM
O=S(=O)(NCCc1[nH]nc(-c2ccc(F)cc2)c1-c1ccncc1)c1ccc(-c2ccccn2)s1 [Example B-1111] | 190 nM
O=S(=O)(NCCc1[nH]nc(-c2ccc(F)cc2)c1-c1ccncc1)c1cc(S(=O)(=O)c2ccccc2)cs1 [Example B-1112] | 580 nM
O=S(=O)(NCCc1[nH]nc(-c2ccc(F)cc2)c1-c1ccncc1)c1ccc(-c2ccon2)s1 [Example B-1113] | < 100 nM
Cn1cnc(S(=O)(=O)NCCc2[nH]nc(-c3ccc(F)cc3)c2-c2ccncc2)c1 [Example B-1114] | 69 nM
CN(C)S(=O)(=O)NCCc1[nH]nc(-c2ccc(F)cc2)c1-c1ccncc1 [Example B-1115] | 24 nM
O=S(=O)(NCCc1[nH]nc(-c2ccc(F)cc2)c1-c1ccncc1)c1ccc(S(=O)(=O)c2ccccc2)s1 [Example B-1116] | 410 nM
O=S(=O)(NCCc1[nH]nc(-c2ccc(F)cc2)c1-c1ccncc1)c1cccc2cnccc12 [Example B-1118] | 330 nM
Cc1ccc(S(C)(=O)=O)cc1S(=O)(=O)NCCc1[nH]nc(-c2ccc(F)cc2)c1-c1ccncc1 [Example B-1119] | 350 nM
Cc1ccc(C(=O)NCCc2[nH]nc(-c3ccc(F)cc3)c2-c2ccncc2)cc1 [Example B-1122] | 1840 nM
O=C(NCCc1[nH]nc(-c2ccc(F)cc2)c1-c1ccncc1)c1cccc(C(F)(F)F)c1 [Example B-1123] | 2930 nM
O=C(NCCc1[nH]nc(-c2ccc(F)cc2)c1-c1ccncc1)c1cc2ccccc2s1 [Example B-1124] | 1490 nM
CC(C)c1cc(C(C)C)c(C(=O)NCCc2[nH]nc(-c3ccc(F)cc3)c2-c2ccncc2)c(C(C)C)c1 [Example B-1125] | 560 nM
O=C(NCCc1[nH]nc(-c2ccc(F)cc2)c1-c1ccncc1)c1cccc2ccccc12 [Example B-1128] | 2550 nM
O=C(NCCc1[nH]nc(-c2ccc(F)cc2)c1-c1ccncc1)c1ccc(F)c(F)c1 [Example B-1129] | 1070 nM
O=C(NCCc1[nH]nc(-c2ccc(F)cc2)c1-c1ccncc1)c1c(F)ccc(F)c1F [Example B-1131] | 76 nM
Cc1cc(C)c(C(=O)NCCc2[nH]nc(-c3ccc(F)cc3)c2-c2ccncc2)c(C)c1 [Example B-1133] | 380 nM

Structure (SMILES) | IC50
O=C(NCCc1[nH]nc(-c2ccc(F)cc2)c1-c1ccncc1)c1cc(C(F)(F)F)ccc1F [Example B-1134] | 1710 nM
O=C(NCCc1[nH]nc(-c2ccc(F)cc2)c1-c1ccncc1)c1c(F)cc(F)cc1F [Example B-1135] | 230 nM
O=C(NCCc1[nH]nc(-c2ccc(F)cc2)c1-c1ccncc1)c1ccc(C(F)(F)F)cc1F [Example B-1136] | 1170 nM
O=C(NCCc1[nH]nc(-c2ccc(F)cc2)c1-c1ccncc1)c1c(F)cccc1C(F)(F)F [Example B-1137] | 38 nM
O=C(NCCc1[nH]nc(-c2ccc(F)cc2)c1-c1ccncc1)c1ccc(F)c(C(F)(F)F)c1 [Example B-1140] | 1680 nM
O=C(NCCc1[nH]nc(-c2ccc(F)cc2)c1-c1ccncc1)c1cc(F)cc(C(F)(F)F)c1 [Example B-1141] | 2470 nM
Cc1cccc(C(=O)NCCc2[nH]nc(-c3ccc(F)cc3)c2-c2ccncc2)c1 [Example B-1143] | 170 nM
O=C(NCCc1[nH]nc(-c2ccc(F)cc2)c1-c1ccncc1)c1ccc(Cl)cc1Cl [Example B-1144] | 440 nM
O=C(NCCc1[nH]nc(-c2ccc(F)cc2)c1-c1ccncc1)c1cccc(F)c1 [Example B-1145] | 1070 nM
O=C(NCCc1[nH]nc(-c2ccc(F)cc2)c1-c1ccncc1)c1cccc(F)c1F [Example B-1146] | 470 nM
O=C(NCCc1[nH]nc(-c2ccc(F)cc2)c1-c1ccncc1)c1c(Cl)cccc1Cl [Example B-1147] | 95 nM
O=C(NCCc1[nH]nc(-c2ccc(F)cc2)c1-c1ccncc1)c1cc(F)ccc1F [Example B-1148] | 430 nM
O=C(NCCc1[nH]nc(-c2ccc(F)cc2)c1-c1ccncc1)c1cc(F)c(F)cc1F [Example B-1149] | 1550 nM
O=C(NCCc1[nH]nc(-c2ccc(F)cc2)c1-c1ccncc1)c1ccccc1F [Example B-1150] | 470 nM
O=C(NCCc1[nH]nc(-c2ccc(F)cc2)c1-c1ccncc1)c1c(F)cccc1F [Example B-1151] | 320 nM
O=C(NCCc1[nH]nc(-c2ccc(F)cc2)c1-c1ccncc1)c1ccc(F)cc1F [Example B-1152] | 730 nM
O=C(NCCc1[nH]nc(-c2ccc(F)cc2)c1-c1ccncc1)c1cccc(Cl)c1 [Example B-1153] | 2220 nM
O=C(NCCc1[nH]nc(-c2ccc(F)cc2)c1-c1ccncc1)c1ccccc1Br [Example B-1154] | 85 nM
O=C(NCCc1[nH]nc(-c2ccc(F)cc2)c1-c1ccncc1)c1cccs1 [Example B-1156] | 270 nM
Cc1noc(C)c1C(=O)NCCc1[nH]nc(-c2ccc(F)cc2)c1-c1ccncc1 [Example B-1157] | 260 nM
